Laboratory results published in US5039684A, “Tetrazole amide derivatives of heterocyclic alkenyl acid and their use as antiallergic substances” (Valeas S. p. A., priority 1989, dated 1991).
Like-named read-outs stand apart in the source and are kept apart here.

How the values were obtained:
[1] = Acute toxicity in the mouse, oral administration; format: in vivo; settings: mouse, in vivo, po, 1000 mg/kg, oral, 1000 mg/kg/os; read-out: mortality (%EAD)
Protocol: (§1) Acute toxicity was evaluated in the mouse by administering the compounds orally at scalar doses to a maximum of 1000 mg/kg to evaluate the 50% lethal dose (LD50). The compounds were administered in carboxymethylcellulose (0.5%) in a volume of […] to male mice (Swiss stock) of average weight 20 g.

mouse = assay: Acute toxicity in the mouse, oral administration; format: in vivo
Protocol: as §1

[2] = tested on: passive cutaneous anaphylaxis; assay: PCA test on the rat, time response curve after oral administration; format: in vivo, rat (male Sprague Dawley); settings: for inhibition in vivo at 100 mg/kg / inhibition in vivo at 30 mg/kg / inhibition in vivo at 1 mg/kg: Rattus norvegicus; for inhibition in vivo at 100 mg/kg: 100 mg/kg/os; for inhibition in vivo at 30 mg/kg: read-out: inhibition %; for inhibition in vivo at 1 mg/kg: 1 mg/kg/os
Protocol: (§2) The serum, obtained from rats actively sensitized with ovalbumin (antigen) and suitably diluted, was injected intradermically into the shaven back of male Sprague Dawley rats (2 wheals per rat).
(§3) The rats were treated intravenously after 24 hours with a solution of ovalbumin and Evans blue. Thirty minutes later they were killed and the diameter and intensity of the blue ring formed at the site of the intradermic injection were measured.
(§4) For each treated group (5 per group) the % inhibition was then calculated with respect to the control group.
(§5) For intravenous administration (2 ml/kg), those compounds in which R1 =H (see formula I) were dissolved in an aqueous 1% NaHCO3 solution whereas for oral administration (4 ml/Kg) they were either suspended in 0.5% carboxymethylcellulose or dissolved in an aqueous 3% NaHCO3 solution.

[3] = tested on: passive cutaneous anaphylaxis; settings: oral, cited from earlier work
[4] = tested on: passive cutaneous anaphylaxis; assay: PCA test on the rat, oral administration before challenge with antigen; format: in vivo, rat (male Sprague Dawley); settings: for ED50: Table 2, oral administration, read-out: ED50 (conf. lim) P = 0.05; for oral bioavailability (in words): from ED50 os / ED50 iv comparison; for inhibition in vivo at 3 mg/kg / inhibition in vivo at 10 mg/kg / inhibition in vivo at 30 mg/kg: read-out: inhibition (%); for ED50 OS/ED50 iv: oral 5 minutes before challenge / i.v. immediately before challenge
Protocol: The serum, obtained from rats actively sensitized with ovalbumin (antigen) and suitably diluted, was injected intradermically into the shaven back of male Sprague Dawley rats (2 wheals per rat). The rats were treated intravenously after 24 hours with a solution of ovalbumin and Evans blue. Thirty minutes later they were killed and the diameter and intensity of the blue ring formed at the site of the intradermic injection were measured. […] The pharmacological screening was effected by administering the compounds of the present invention intravenously and orally. For intravenous administration (2 ml/kg), those compounds in which R1 =H (see formula I) were dissolved in an aqueous 1% NaHCO3 solution whereas for oral administration (4 ml/Kg) they were either suspended in 0.5% carboxymethylcellulose or dissolved in an aqueous 3% NaHCO3 solution.

[5] = tested on: passive cutaneous anaphylaxis; assay: PCA test on the rat, intravenous administration just before challenge with antigen; format: in vivo, rat (male Sprague Dawley); settings: for ED50: read-out: ED50 (conf. lim) P = 0.05; for inhibition (%) / ED50 (conf. lim) P = 0.05: i.v.
Protocol: as §2, §3, §4
The pharmacological screening was effected by administering the compounds of the present invention intravenously and orally.
as §5

[6] = in vivo; cited from earlier work
[7] = 5 min, oral, 5 minutes before challenge
[8] = 0.25 h, oral, 15 minutes before challenge
[9] = 0.5 h, oral, 30 minutes before challenge
[10] = 1 h, oral, 60 minutes before challenge
[11] = 2 h, oral, 120 minutes before challenge
[12] = Rattus norvegicus, iv, 1 mg/kg, immediately before challenge, read-out: inhibition (%)
[13] = Rattus norvegicus, iv, 3 mg/kg, immediately before challenge
[14] = Rattus norvegicus, iv, immediately before challenge
[15] = 5 min, oral, 30 mg/kg/os, 5 minutes before challenge
[16] = 0.25 h, oral, 30 mg/kg/os, 15 minutes before challenge
[17] = 0.5 h, oral, 30 mg/kg/os, 30 minutes before challenge
[18] = 1 h, oral, 30 mg/kg/os, 60 minutes before challenge
[19] = 2 h, oral, 30 mg/kg/os, 120 minutes before challenge
[20] = Rattus norvegicus, po, 3 mg/kg, 5 minutes before challenge
[21] = Rattus norvegicus, po, 10 mg/kg, 5 minutes before challenge
[22] = Rattus norvegicus, po, 30 mg/kg, 5 minutes before challenge
[23] = Rattus norvegicus, po, 5 min, 5 minutes before challenge
[24] = Rattus norvegicus, iv, read-out: inhibition (%)

Compound | mortality [1] | No. (dead) (mouse; oral, 1000 mg/kg/os, 8 treated) | inhibition in vivo at 1 mg/kg [5, 12] | inhibition in vivo at 3 mg/kg [5, 13] | inhibition in vivo at 10 mg/kg [5, 14] | ED50 [5, 14] | inhibition in vivo at 30 mg/kg [2, 15] | inhibition in vivo at 30 mg/kg [2, 16] | inhibition in vivo at 30 mg/kg [2, 17] | inhibition in vivo at 30 mg/kg [2, 18] | inhibition in vivo at 30 mg/kg [2, 19] | inhibition in vivo at 3 mg/kg [4, 20] | inhibition in vivo at 10 mg/kg [4, 21] | inhibition in vivo at 30 mg/kg [4, 22] | ED50 [4, 23] | ED50 OS/ED50 iv [4] | also measured
COc1ccc(/C=C/C(=O)Nc2ccccc2C(=O)O)cc1OC [Tranilast, N-(3', 4'-dimethoxycinnamoyl) anthranylic acid, reference compound] | 87.5% | 7 |  |  |  |  |  |  |  |  |  |  |  |  |  |  | inhibition in vivo at 100 mg/kg [2, 7]: 17.9%; inhibition in vivo at 100 mg/kg [2, 8]: 37.4%; inhibition in vivo at 100 mg/kg [2, 9]: 20.5%; inhibition in vivo at 100 mg/kg [2, 10]: 20.5%; inhibition in vivo at 100 mg/kg [2, 11]: 13.7%; time of administration before challenge giving the peak (maximum) effect ([2]; oral): 15 min; ED50 ([3]; 2 hours before challenge, Koda et al.): 150 (88, 3-255) mg/kg/os; ED50 ([4]; Rattus norvegicus, po, 0.25 h, 15 minutes before challenge): 115 mg/kg; oral bioavailability (in words) [4]: less bioavailable when administered orally than the compounds of the present invention; activity compared with Tranilast / compounds of the invention (in words) ([4]; oral): less active by at least one order of magnitude
O=C(/C=C/c1cccnc1)Nc1nn[nH]n1 [VAL 47-017, N-1H-tetrazol-5-yl-[3-(3-pyridyl)]-acrylamide trans isomer] | 0% | 0 | 71.6% | 93.9% | 100% | 0.36 mg/kg | 45% | 7.3% | 1% | 0% | 0% | 21.7% | 22.8% | 48.3% |  |  | inhibition in vivo at 0.3 mg/kg ([5]; Rattus norvegicus, iv, 0.3 mg/kg, immediately before challenge, read-out: inhibition (%)): 45.7%
O=C(/C=C/c1ccc(Br)s1)Nc1nn[nH]n1 [VAL 47-008, N-1H-tetrazol-5-yl-[3-[5-bromo-(2-thienyl)]]-acrylamide trans isomer] | 0% | 0 | 0% | 8.6% | 31.9% | 12.8 mg/kg | 37.7% | 16% | 10.9% | 3.4% | 2.3% | 32.5% | 26.9% | 43.7% |  |  | inhibition in vivo at 30 mg/kg [5, 14]: 82.3%
O=C(/C=C/c1cccs1)Nc1nn[nH]n1 [VAL 47-024, N-1H-tetrazol-5-yl-[3-(2-thienyl)] acrylamide trans isomer] | 0% | 0 | 18.1% | 64.9% | 100% | 2.29 mg/kg | 43.5% | 52.7% | 46.7% | 30.4% | 10.9% | 30.2% | 53.8% | 53.3% |  |  | 
Cc1cccc(C(=O)Nc2nn[nH]n2)n1 [TA 57-07, 6-methyl-N-(1H-tetrazol-5-yl)-2-pyridinecarboxyamide, reference compound] | 50% | 4 |  |  |  | 0.059 mg/kg |  |  |  |  |  | 82.5% |  |  | 0.93 mg/kg | 15.76 | inhibition in vivo at 1 mg/kg [2, 7]: 86.8%; inhibition in vivo at 1 mg/kg [2, 8]: 43.7%; inhibition in vivo at 1 mg/kg [2, 9]: 37.6%; inhibition in vivo at 1 mg/kg [2, 10]: 17.3%; inhibition in vivo at 1 mg/kg [2, 11]: 4.1%; ED50 ([3]; 5 minutes before challenge, Tsuzurahara et al.): 0.9 (0.6-1.6) mg/kg/os; inhibition in vivo at 0.3 mg/kg ([4]; Rattus norvegicus, po, 0.3 mg/kg, 5 minutes before challenge): 12.7%; inhibition in vivo at 1 mg/kg ([4]; Rattus norvegicus, po, 1 mg/kg, 5 minutes before challenge): 57.7%; oral bioavailability (in words) [4]: less bioavailable when administered orally than the compounds of the present invention
Cc1ccc(/C=C/C(=O)Nc2nn[nH]n2)s1 [VAL 47-005, N-1H-tetrazol-5-yl-[3-[5-methyl-(2-thienyl)]] acrylamide trans isomer] | 0% |  | 20.3% | 43.4% | 89.4% | 2.99 mg/kg | 75.5% | 61.4% | 37.5% | 0% | 11.4% |  | 43.8% | 75.3% | 12.4 mg/kg | 4.13 | No. (dead) (mouse; mouse, in vivo, po, 1000 mg/kg): 0; inhibition (%) ([4]; oral, 3 mg/kg, 5 minutes before challenge): 9.6%
O=C([O-])c1cc(=O)c2c(OCC(O)COc3cccc4oc(C(=O)[O-])cc(=O)c34)cccc2o1.[Na+].[Na+] [DSCG, Disodium chromoglycate, reference compound] |  |  |  |  |  |  |  |  |  |  |  |  |  |  |  |  | inhibition (%) ([5]; 0.1 mg/kg, immediately before challenge): 28.1%; inhibition (%) ([5]; 0.3 mg/kg, immediately before challenge): 33.6%; inhibition (%) ([5]; 1 mg/kg, immediately before challenge): 70.0%; inhibition (%) ([5]; 3 mg/kg, immediately before challenge): 100%; ED50 (conf. lim) P = 0.05 ([5]; immediately before challenge): 0.52 mg/kg/iv; ED50 (conf. lim) P = 0.05 ([5]; immediately before challenge, listed as D.S.C.G.): 0.52 (0.47-0.83) mg/kg/iv; absorption at the gastro-enteric level [6]: not being absorbed at the gastro-enteric level
O=C(/C=C/c1ccco1)Nc1nn[nH]n1 [VAL 47-010, N-1H-tetrazol-5-yl-[3-(2-furyl)]-acrylamide trans isomer] | 25% |  | 29% | 40.2% | 84.1% | 3.13 mg/kg | 51.4% | 44.8% | 21.9% | 6.6% | 18.6% | 9.6% | 35.9% | 80.9% | 12.4 mg/kg | 3.95 | inhibition in vivo at 30 mg/kg [5, 14]: 95.3%; No. (dead) (mouse; mouse, in vivo, po, 1000 mg/kg): 2
O=C(/C=C/c1ccnc2ccccc12)Nc1nn[nH]n1 [VAL 47-067, N-1H-TETRAZOL-5-YL-[3-(4-QUINOLYL)] […] ISOMER] | 12.5% | 1 |  |  |  |  |  |  |  |  |  |  |  |  |  |  | ED50 ([5]; Rattus norvegicus, iv): 0.35 mg/kg; inhibition in vivo at 0.1 mg/kg [5, 24]: 1.1%; inhibition in vivo at 0.3 mg/kg [5, 24]: 53.6%; inhibition in vivo at 1 mg/kg [5, 24]: 81.8%; inhibition in vivo at 30 mg/kg ([2]; po, 5 min): 50.5%; inhibition in vivo at 30 mg/kg ([2]; po, 0.25 h): 29.3%; inhibition in vivo at 30 mg/kg ([2]; po, 0.5 h): 13.3%; inhibition in vivo at 30 mg/kg ([2]; po, 1 h): 0%; inhibition in vivo at 30 mg/kg ([2]; po, 2 h): 0%; inhibition in vivo at 3 mg/kg ([4]; Rattus norvegicus, po): 8.3%; inhibition in vivo at 10 mg/kg ([4]; Rattus norvegicus, po): 0%; inhibition in vivo at 30 mg/kg ([4]; Rattus norvegicus, po): 16.7%
